In EP3390415B1, “(R)- AND (S)-1-(3-(3-N,N-DIMETHYLAMINOCARBONYL)PHENOXYL-4-NITROPHENYL)-1-ETHYL-N,N'-BIS (ETHYLENE)PHOSPHORAMIDATE, COMPOSITIONS AND METHODS FOR THEIR USE AND PREPARATION” (OBI PHARMA, INC., priority 2015, dated 2017):
pIC50: −log10 of the molar value. Where two headings read alike, the source gives them in different places.

Tests used:
[1] = Acute toxicity study in monkeys, body weight; format: in vivo, Cynomolgus monkeys; set-up: unit not given here; details: 2 mg/kg IV infusion
Method: (§1) TH 3423 and TH 3424 were tested in no naive monkeys (1 male and one female for each compound at 2 mg/kg) with 30-min intravenous infusion, TK sampling: on Day 1 and Day 15: 0.25, 0.5, 0.75, 1 and 2 hr post infusion initiation. Serum chemistry and hematology: pre-dose (Day 1), day 5, day 8 (pre-dose), day 15 (pre-dose), day 22 and day 28. Clinical observation: Daily during the study, total 35 days. Food consumption: Daily during the study, total 35 days. Bodyweight measurement: Twice weekly for five weeks.

KYSE 70 = test: In vitro human tumor cell line cytotoxicity assay; format: cell-based; details: read-out: RelIC50
TF-1 = test: In vitro human tumor cell line cytotoxicity assay; format: cell-based; details: read-out: RelIC50
NOMO-1 = test: In vitro human tumor cell line cytotoxicity assay; format: cell-based; details: read-out: RelIC50
Vcap = test: In vitro human tumor cell line cytotoxicity assay; format: cell-based; details: for pIC50: Homo sapiens, VCaP
HCCC9810 = test: In vitro human tumor cell line cytotoxicity assay; format: cell-based; details: for pIC50: Homo sapiens
TE-6 = test: In vitro human tumor cell line cytotoxicity assay; format: cell-based; details: read-out: RelIC50
EC-GI-10 = test: In vitro human tumor cell line cytotoxicity assay; format: cell-based; details: read-out: RelIC50
ECa-109 = test: In vitro human tumor cell line cytotoxicity assay; format: cell-based; details: read-out: RelIC50
[2] = Body weight and toxicity in the orthotopic liver cancer mouse model; format: in vivo, athymic nude mice; details: intra-peritoneal, low or high dose (2.5 and 5 mg/kg)
KYSE 270 = test: In vitro human tumor cell line cytotoxicity assay; format: cell-based; details: read-out: RelIC50
[3] = Pharmacokinetics (TK) after 30-min IV infusion in monkeys; format: in vivo, Cynomolgus monkeys; details: 2 mg/kg 30-min IV infusion; for MRT inf / clearance / half-life / Vd / concentration at 0.25 hr / concentration at 0.5 hr / concentration at 0.75 hr / concentration at 1 hr / concentration at 2 hr: cynomolgus monkey, plasma; for half-life: read-out: Terminal t1/2 (converted); for Vd: read-out: Vss
Method: as §1

H460 cells = test: In vitro proliferation assay, H460; format: cell-based; details: Homo sapiens, NCI-H460; 2 hrs exposure, wash, additional 70hrs, AlamarBlue; read-out: IC 50 in proliferation assay in H460 cells
Method: In vitro proliferation data on the H460 […] human tumor cell line is reported above in the compound table. IC50 values are reported in micromolar and result from exposure of compound at various concentrations for 2 hrs followed by a wash step and addition of fresh media followed by growth and cell viability staining and comparison to a media only treated control.
Specifically, exponentially growing cells were seeded at a density of 4 x 10^3 cells per well in a 96 well plate and incubated at 37°C in 5% CO2, 95% air and 100% relative humidity for 24 hours prior to addition of test compounds. Compounds were solubilized in 100% DMSO at 200 times the desired final test concentration. At the time of drug addition, compounds were further diluted to 4 times the desired final concentration with complete medium. Aliquots of 50 µl of compound at specified concentrations were added to microtiter wells already containing 150 µl of medium, resulting in the final drug concentration reported. After drug addition, the plates were incubated for an additional 2 hours at 37°C, 5% CO2, 95% air, and 100% relative humidity, then the drug was washed off and fresh medium was added and the plates were incubated for addition 70hrs at 37 °C, 5% CO2, 95% air and 100% relative humidity. At the end of this incubation, the viable cells were quantified using the AlamarBlue assay. The drug concentration resulting in growth inhibition of 50% (IC50) was calculated using Prism software (Irvine, CA), and the results were listed in the table.

[4] = both sexes, mean, read-out: Plasma concentration, Mean
[5] = female, read-out: Plasma concentration
[6] = male, read-out: Plasma concentration

Question: With `C[C@H](OP(=O)(N1CC1)N1CC1)c1ccc([N+](=O)[O-])c(Oc2cccc(C(=O)N(C)C)c2)c1` (single isomer, unassigned) [TH3424] as the molecule, how does the body weight ([1]; Mean, Day 1) read?
Answer: 3.34

Question: And the body weight ([1]; Mean, Day 4)?
Answer: 3.26

Question: And the body weight ([1]; Mean, Day 8)?
Answer: 3.20

Question: And the body weight ([1]; Mean, Day 11)?
Answer: 3.06

Question: And the body weight ([1]; female, Day 1)?
Answer: 3.28

Question: And the body weight ([1]; female, Day 4)?
Answer: 3.22

Question: What about the body weight ([1]; female, Day 8) of the same molecule?
Answer: 3.08

Question: And the body weight ([1]; female, Day 11)?
Answer: 2.94

Question: And the body weight ([1]; male, Day 1)?
Answer: 3.40

Question: And the body weight ([1]; male, Day 4)?
Answer: 3.30

Question: And the body weight ([1]; male, Day 8)?
Answer: 3.31

Question: And the body weight ([1]; male, Day 11)?
Answer: 3.17

Question: What about the pIC50 (KYSE 70) of the same molecule?
Answer: 7.48

Question: What about the pIC50 (TF-1) of the same molecule?
Answer: 7.55

Question: What about the pIC50 (NOMO-1) of the same molecule?
Answer: 7.96

Question: What about the pIC50 (Vcap; read-out: AbsIC50) of the same molecule?
Answer: 7.83

Question: And the pIC50 (Vcap; read-out: RelIC50)?
Answer: 7.88

Question: And the “Max Inhibition%” value (Vcap; Vcap)?
Answer: 101.4%

Question: And the “Min Inhibition%” value (Vcap; Vcap)?
Answer: -13.2%

Question: And the “Max Inhibition%” value (HCCC9810)?
Answer: 95.4%

Question: What about the “Min Inhibition%” value (HCCC9810) of the same molecule?
Answer: 2.1%

Question: And the pIC50 (HCCC9810; read-out: AbsIC50)?
Answer: 7.86

Question: What about the pIC50 (HCCC9810; read-out: RelIC50) of the same molecule?
Answer: 7.87

Question: What about the pIC50 (TE-6) of the same molecule?
Answer: 7.68

Question: What about the pIC50 (EC-GI-10) of the same molecule?
Answer: 7.89

Question: What about the pIC50 (ECa-109) of the same molecule?
Answer: 7.77

Question: What about the “toxicity to the experimental mice” value [2] of the same molecule?
Answer: no obvious toxicity

Question: What about the “toxicity to the experimental mice” value ([2]; listed as TH2870-2) of the same molecule?
Answer: no obvious acute toxicity

Question: What about the pIC50 (KYSE 270) of the same molecule?
Answer: 6.57

Question: And the AUCINF ([3]; Mean)?
Answer: 1461 hr^∗ng/mL

Question: And the AUClast ([3]; Mean)?
Answer: 1459 hr^∗ng/mL

Question: And the MRT inf ([3]; both sexes, Mean)?
Answer: 13.9 min

Question: What about the clearance ([3]; both sexes, Mean) of the same molecule?
Answer: 23.7 mL/min/kg

Question: What about the half-life ([3]; both sexes, Mean) of the same molecule?
Answer: 10.9 min

Question: And the Vd ([3]; both sexes, Mean)?
Answer: 0.325 L/kg

Question: What about the concentration at 0.25 hr [3, 4] of the same molecule?
Answer: 2160 ng/mL

Question: And the concentration at 0.5 hr [3, 4]?
Answer: 2400 ng/mL

Question: What about the concentration at 0.75 hr [3, 4] of the same molecule?
Answer: 794 ng/mL

Question: What about the concentration at 1 hr [3, 4] of the same molecule?
Answer: 185 ng/mL

Question: And the concentration at 2 hr [3, 4]?
Answer: 5.64 ng/mL

Question: What about the concentration at 0.25 hr [3, 5] of the same molecule?
Answer: 1850 ng/mL

Question: And the concentration at 0.5 hr [3, 5]?
Answer: 2090 ng/mL

Question: What about the concentration at 0.75 hr [3, 5] of the same molecule?
Answer: 557 ng/mL

Question: What about the concentration at 1 hr [3, 5] of the same molecule?
Answer: 110 ng/mL

Question: What about the concentration at 2 hr [3, 5] of the same molecule?
Answer: 3.84 ng/mL

Question: And the MRT inf ([3]; female)?
Answer: 12.9 min

Question: What about the clearance ([3]; female) of the same molecule?
Answer: 27.8 mL/min/kg

Question: And the half-life ([3]; female)?
Answer: 10.9 min

Question: What about the Vd ([3]; female) of the same molecule?
Answer: 0.36 L/kg

Question: And the concentration at 0.25 hr [3, 6]?
Answer: 2480 ng/mL

Question: What about the concentration at 0.5 hr [3, 6] of the same molecule?
Answer: 2720 ng/mL

Question: What about the concentration at 0.75 hr [3, 6] of the same molecule?
Answer: 1030 ng/mL

Question: What about the concentration at 1 hr [3, 6] of the same molecule?
Answer: 260 ng/mL

Question: What about the concentration at 2 hr [3, 6] of the same molecule?
Answer: 7.43 ng/mL

Question: And the MRT inf ([3]; male)?
Answer: 15 min

Question: And the clearance ([3]; male)?
Answer: 19.3 mL/min/kg

Question: What about the half-life ([3]; male) of the same molecule?
Answer: 10.9 min

Question: And the Vd ([3]; male)?
Answer: 0.289 L/kg

Question: And the AUCINF ([3]; female)?
Answer: 1196 hr^∗ng/mL

Question: And the AUClast ([3]; female)?
Answer: 1195 hr^∗ng/mL

Question: What about the AUCINF ([3]; male) of the same molecule?
Answer: 1726 hr^∗ng/mL

Question: What about the AUClast ([3]; male) of the same molecule?
Answer: 1724 hr^∗ng/mL

Question: And the pIC50 (H460 cells)?
Answer: 8.40
